These results are taken from US9044428B2, “Neuritogenic peptides” (Neoloch ApS, priority 2005, dated 2015).

Molecules are shown by their SMILES. Peptide text beside a SMILES is read from it.

Assay [1] deals with T1, recombinant erythropoietin receptor (EPOR-Fc) (Homo sapiens, UniProt P19235).
T1 construct: the chip was incubated with soluble recombinant EPOR-Fc under standard conditions
T1 sequence (P19235 25-250 limits assumed): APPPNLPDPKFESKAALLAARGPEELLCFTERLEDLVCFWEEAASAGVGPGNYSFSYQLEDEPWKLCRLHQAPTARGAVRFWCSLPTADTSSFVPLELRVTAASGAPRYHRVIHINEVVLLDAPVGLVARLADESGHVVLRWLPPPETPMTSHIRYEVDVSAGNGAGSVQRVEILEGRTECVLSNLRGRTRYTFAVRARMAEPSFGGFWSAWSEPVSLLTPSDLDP
The experiment in a line: SPR binding of soluble EPOR-Fc to immobilized Epo 3 peptide. The method, then: The binding of Epo 3 to EPOR-Fc was studied by SPR analysis. The Epo 3 peptide was immobilized on a chip and the chip was incubated with soluble recombinant EPOR-Fc under standard conditions. Three independent experiments were performed. […] The results of binding are shown on FIG. 16.
Background: Surface plasmon resonance follows binding to a sensor surface in real time, without labels.

Assay [2] concerns rat brain after TBI. The experiment in a line: Neuroplasticity and neurite outgrowth in vivo after TBI (PSA-NCAM and GAP-43 immunostaining). The method, then:
(§1) Male rats (wistar) (tree groups, 5 rats/group) were injected s.c with different Epo peptides (each group individually with Epo 2, Epo 3 or Epo 4) three times according to the scheme: • 1. the day before the lesion: a single injection of a peptide per animal (1 mg/100 g animal weight); • 2. the 1st day after the lesion: a single injection of a peptide per animal (1 mg/100 g animal weight): • 3. the 2nd day after the lesion: a single injection of a peptide per animal (1 mg/100 g animal weight); • 4. the 3rd day after the lesion: animals are sacrificed.
(§2) Control groups were a group (4 rats) injected with the vehicle (water) and a group (4 rats), injected with human recombinant EPO (hrEPO) in dose 50 μg/100 g rat according to the above scheme.
(§3) A traumatic brain injury (TBI) was induced by applying dry ice (−78 C) to the extracranial surface of the skull for 60 sec, which induces a focal injury in the right fronto-parietal cortex. Three days after the lesion (3 dpl) rats were deeply anesthetized with Brietal (10 mg/100 gr) and fixed by transcardial perfusion with 0.9% NaCl and 0.3% heparin, followed by Zamboni's fixative. The brains were removed, dehydrated according to the standard protocol, embedded in paraffin, and cut in 6-μm-thick frontal sections for further evaluation by immunohistochemistry and TUNEL.
(§4) For immunohistochemistry the sections of the brains were incubated overnight with polyclonal rabbit anti-cow GFAP, GAP-43, 8-oxoguanine, or PSA-NCAM antibodies 1:250 (Dakopatts). The primary antibodies were detected in the sections with biotinylated secondary antibodies followed by incubation with streptavidin-biotin-peroxidase (30 min). Afterwards, the sections were incubated with biotinylated tyramide and streptavidin-peroxidase complex (NEN, Life Science Products, USA, code NEL700A) prepared following the manufacturer recommendations, and visualized with 0.015% H2O2 in DAB/TBS for 10 min.

Assay [3] relates to human erythroleukemia cells TF-1. The experiment in a line: Proliferation of TF-1 cells (BrdU incorporation ELISA). In kind it is cell-based. The method, then:
Evaluation of the effect of four EPO-derived peptides on cell proliferation was performed using a TF-1 cell line. The TF-1 cell line was established from sample from patient with severe pancytopenia (human erythroleukemia). The growth of these cells is dependent of the presence of the granulocyte-macrophage colony-stimulating factor (GM-SCF). The TF-1 cells were grown in Dulbecco's Modified Eagle Medium (DMEM) supplemented with 10% (v/v) heat inactivated foetal calf serum (FCS), 2 mM GlutaMAX, penicillin (100 U/ml) and streptomycin (100 μg/ml), 10 mM HEPES, 1 mM sodium pyruvate, 1% fungizone. The growth medium was supplemented with 2 ng/ml GM-CSF. Cell proliferation was determined using a Biotrak ELISA system, version 2 (Amersham Biosciences, UK). The procedure is based on measurement of the levels of 5-bromo-2′-deoxyuridine (BrdU) incorporation during DNA synthesis in proliferating cells. Briefly, passaged cells were washed once with starving medium (culturing medium without GM-CSF) then plated in 96-well Nuclon culture microplates (Nuno, Denmark) at a density of 5000 cells/well and grown in starving medium containing 0.008, 0.04, 0.2, 1.0, 5.0, 25 and 50 μg/ml of the tested compounds. As a positive control the human recombinant erythropoietin (EPO) (Calbiochem, Denmark) was used in a concentration of 2.0 ng/ml. TF-1 cells were allowed to grow in the presence of peptides for 24 h and than to all wells (except negative controls) BrdU was added to a final concentration of 10 μM and cultures were further incubated for 24 h, fixed and processed according to the procedure recommended by manufacturer, […]

Assay [4] in a line: Hematocrit in rats after the brain lesion. In kind it is in vivo. Particulars: rat after brain lesion, peptide 1 mg/100 g s.c., p>0.02. The method, then:
as §1, §2

In assay [5] the test system is rat brain after TBI. The experiment in a line: Oxidative DNA damage after traumatic brain injury (8-oxoguanine immunostaining). Format: in vivo. Particulars: s.c., 3 days after lesion. The method, then: as §1, §2, §3, §4
The test system of assay [6] is Cerebellar granule neuron (CGN) cultures. The experiment in a line: Stimulation of neurite outgrowth from cerebellar granule neurons in vitro. Format: cell-based, rat. Particulars: 24 h treatment of CGN cultures. The text has this: Cerebellar granule neuron (CGN) cultures were obtained from 3-4-day-old Wistar rats (Charles River, Sulzfeld, Germany, or Moellegaard, Denmark) as previously described by Schousboe et al. (1989). Briefly, the cerebella were dissected, cleared of meninges and blood vessels, chopped, and trypsinized. The neurons were washed in the presence of DNAse 1 and soybean trypsin inhibitor (Sigma), and cellular debris was pelleted by centrifugation; the cells resuspended and then plated on poly-L-lysine (PLL; Sigma)-coated or uncoated microtiter plates in Neurobasal medium supplemented with 4% (w/v) bovine serum albumin (BSA), 2% (v/v) B27, 1% (v/v) glutamax, 100 U/ml penicillin, 100 gi/ml streptomycin, 4.5 g D-glucose/L (Sigma) 0.25% (v/v) sodium pyruvate, and 2% (v/v) 1 M HEPES (Gibco BRL).

Assay [7] concerns rat brain after TBI. The experiment in a line: Programmed cell death after traumatic brain injury (TUNEL). Particulars: s.c., 3 days after lesion. Format: in vivo. The method, then:
as §1, §2
A traumatic brain injury (TBI) was induced by applying dry ice (−78 C) to the extracranial surface of the skull for 60 sec, which induces a focal injury in the right fronto-parietal cortex. Three days after the lesion (3 dpl) rats were deeply anesthetized with Brietal (10 mg/100 gr) and fixed by transcardial perfusion with 0.9% NaCl and 0.3% heparin, followed by Zamboni's fixative. The brains were removed, dehydrated according to the standard protocol, embedded in paraffin, and cut in 6-μm-thick frontal sections for further evaluation by immunohistochemistry and TUNEL. […]

[8] abbreviates: Epo 3 ionic bonded with the chip, soluble EPOR-Fc, three experiments.

With `CC(C)C[C@H](NC(=O)CNC(=O)[C@H](CO)NC(=O)[C@@H](NC(=O)[C@H](C)NC(=O)[C@H](CCCCN)NC(=O)[C@H](CC(=O)O)NC(=O)[C@@H](NC(=O)[C@H](Cc1c[nH]cn1)NC(=O)[C@H](CC(C)C)NC(=O)[C@@H](N)CCC(N)=O)C(C)C)C(C)C)C(=O)N[C@@H](CCCNC(=N)N)C(=O)N[C@@H](CO)C(=O)N[C@@H](CC(C)C)C(=O)N[C@H](C(=O)N[C@H](C(=O)N[C@@H](CC(C)C)C(=O)N[C@@H](CC(C)C)C(=O)N[C@@H](CCCNC(=N)N)C(=O)N[C@@H](C)C(=O)O)[C@@H](C)O)[C@@H](C)O` [Epo3] (H-QLHVDKAVSGLRSLTTLLRA-OH), the “binding to EPOR” value in assay [1] (Epo 3 covalently bonded to the chip) is “does not bind to EPOR”. The association rate ka in assay [1] (setting [8]) is 2.1*10^4+−1.4*10^4. Also, in assay [1] (setting [8]), the dissociation rate kd is on record as 4.33*10^−5+−1.62*10^−5. Further, in assay [1] (Epo 3 ionic bonded with the chip, soluble EPOR-Fc, three experiments, read-out: association rate ka), the kon was 21000 M⁻¹ s⁻¹. Also, the koff in assay [1] (Epo 3 ionic bonded with the chip, soluble EPOR-Fc, three experiments, read-out: dissociation rate kd) came to 4.33e-05 s⁻¹. In assay [1] (Epo 3 ionic bonded with the chip, soluble EPOR-Fc, read-out: overall binding affinity of EPOR to Epo3), the Kd amounted to 4.48 nM. Also, the “level of PSA-NCAM staining” value in the assay with rat brain after TBI [2] (area adjusted to the lesion and subventricular zone) was “significantly increases the level of PSA-NCAM staining”. Also, the “neurite outgrowth in vivo (GAP-43 immunostaining)” value in the assay with rat brain after TBI [2] (cortical lesion area, choroid plexus, hippocampus, hypothalamus) is on record as “stimulates neurite outgrowth”. Besides, the “proliferation of TF-1 cells” value in assay [3] (concentration of 50 μg/ml) is reported as “stimulate proliferation of TF-1 cells”. Further, in assay [3] (no concentration stated), the “stimulation of haemopoietic cell proliferation (general conclusion)” value is “most potent among them”. The “effect on the hematocrit vs control” value in assay [4] is given as “no statistically significant effect”; in assay [4] (listed as Epo 3), “no significant effect”. Besides, the “8-oxoguanine positive cells (oxidative DNA damage)” value in the assay on rat brain after TBI [5] is reported as “lowest number of the 8-oxoguanine positive cells”. The “neurite outgrowth from CGN (neuritogenic activity)” value is “capable of stimulating neurite outgrowth” in assay [6] and “strongly induce neurite outgrowth” in assay [6] (listed as SEQ ID NO: 3). Further, in the assay with rat brain after TBI [7], the “TUNEL-positive apoptotic cells around the necrotic cavity” value is on record as “lowest level of apoptosis”.
